Tested on: A2780
Assay: Cytotoxicity against human A2780 cells
Assay type: functional, cell-based

SMILES	IC50 [nM]
C/C=C(\C)C(=O)O[C@@H]1[C@@H](OC(C)=O)[C@@H]2O[C@H]3[C@H](O[C@@H](CCC)CCCCC[C@H](OC(C)=O)C(=O)CCC(=O)OC[C@@H](O2)[C@H]1OC(=O)/C=C/c1ccccc1)O[C@H](C)[C@H](OC(C)=O)[C@@H]3OC(C)=O	19100
C/C=C(\C)C(=O)O[C@@H]1[C@@H](OC(C)=O)[C@@H]2O[C@H]3[C@H](O[C@@H](CCC)CCCCCCC(=O)CCC(=O)OC[C@@H](O2)[C@H]1OC(=O)/C=C/c1ccccc1)O[C@H](C)[C@H](OC(C)=O)[C@@H]3OC(C)=O	15800
C/C=C(\C)C(=O)O[C@@H]1[C@@H](O)[C@@H]2O[C@H]3[C@H](O[C@@H](CCC)CCCCCCC(=O)CCC(=O)OC[C@@H](O2)[C@H]1OC(=O)/C=C/c1ccccc1)O[C@H](C)[C@H](OC(C)=O)[C@@H]3O [IPOMOEASSIN A]	500
C/C=C(\C)C(=O)O[C@@H]1[C@@H](O)[C@@H]2O[C@H]3[C@H](O[C@@H](CCC)CCCCCCC(=O)CCC(=O)OC[C@@H](O2)[C@H]1OC(=O)/C=C/c1ccccc1)O[C@H](C)[C@H](O)[C@@H]3O [IPOMOEASSIN B]	400
C/C=C(\C)C(=O)O[C@@H]1[C@@H](O)[C@@H]2O[C@H]3[C@H](O[C@@H](CCC)CCCCC[C@H](O)C(=O)CCC(=O)OC[C@@H](O2)[C@H]1OC(=O)/C=C/c1ccccc1)O[C@H](C)[C@H](OC(C)=O)[C@@H]3O [IPOMOEASSIN C]	2900
C/C=C(\C)C(=O)O[C@@H]1[C@@H](O)[C@@H]2O[C@H]3[C@H](O[C@@H](CCC)CCCCC[C@H](OC(C)=O)C(=O)CCC(=O)OC[C@@H](O2)[C@H]1OC(=O)/C=C/c1ccccc1)O[C@H](C)[C@H](OC(C)=O)[C@@H]3O [IPOMOEASSIN D]	35
C/C=C(\C)C(=O)O[C@@H]1[C@@H](O)[C@@H]2O[C@H]3[C@H](O[C@@H](CCC)CCCCC[C@H](OC(C)=O)C(=O)CCC(=O)OC[C@@H](O2)[C@H]1OC(=O)/C=C/c1ccccc1)O[C@H](C)[C@H](O)[C@@H]3O [IPOMOEASSIN E]	3300

From ChEMBL document CHEMBL1158724, “Ipomoeassins A-E, cytotoxic macrocyclic glycoresins from the leaves of Ipomoea squamosa from the Suriname rainforest” (J Nat Prod, 2005)
